Measurements: patent US9422292B2, “Bromodomain inhibitors and uses thereof” (Constellation Pharmaceuticals, Inc., priority 2011, dated 2016)

Tests used:
BRD4 (BD1) = target: T1, BRD4 (BD1) (Homo sapiens, UniProt O60885); experiment: BRD4 AlphaLisa binding assay; conditions: BRD4 (BD1) 30 nM, biotinylated H4-tetraacetyl peptide 200 nM; read-out: BRD4 AlphaLisa
T1 construct: His; made in house
Description: A. IC50 Measurements for Inhibitors Using BRD4 AlphaLisa Binding Assay.
Specifically, in a 384 well ProxiPlate BRD4 (BD1) (30 nM final) was combined with peptide (200 nM final) in 40 mM HEPES (pH 7.0), 40 mM NaCl, 1 mM DTT, 0.01% (w/v) BSA, and 0.008% (w/v) Brij-35 either in the presence of DMSO (final 1.2% DMSO) or compound dilution series in DMSO. After 20 minute incubation at room temperature Alpha streptavidin donor beads and AlphaLisa anti-Flag acceptor beads were added to a final concentration of 10 ug/mL each. After three hours equilibration plates were read on an Envision instrument and IC50s calculated using a four parameter non-linear curve fit.

[1] = tested on: MYC mRNA in MV4:11 (AML) cells; experiment: cMyc RNA quantification assay (QuantiGene) in MV4:11 cells; type: cell-based; conditions: Homo sapiens, 4 h, QuantiGene 2.0
Description: B. cMyc RNA Quantification Assay (QuantiGene® Assay):
MV4:11 (AML) cells were seeded in a 96-well plate and incubated in the presence of various concentrations of compounds for 4 h. Relative mRNA levels were quantitated by using QuantiGene 2.0 assay (Affymetrix) according to the manufacturer's recommendation. Signals were detected by using an Envision plate reader (Perkin-Elmer). Biological duplicates were averaged and normalized to vehicle (DMSO) control to calculate percent MYC mRNA levels.

[2] = tested on: IL-6 secretion in THP-1 cells; experiment: Cell-based IL-6 quantification assay (ELISA, Mesoscale) in LPS-treated THP-1 cells; conditions: Homo sapiens, LPS 4 μg/mL, 16 h, ELISA value/CellTiter-Glo ratio
Description: C. Cell-Based IL-6 Quantification Assay (ELISA, Mesoscale Assay):
100,000 THP-1 cells were seeded in RPMI1640-10% FBS in 96-well plates. LPS (E. Coli Invitrogen) in RPMI−10% FBS at a final concentration of 4 μg/mL was added to the wells and the cells are then incubated in the presence of various concentrations of compounds for 16 h. Plates are spun ([…], 5 min), an aliquot of 25 uL supernatant is transferred in to an ELISA plate (Mesoscale technology, MSD) and the detection of IL-6 is performed using manufacturer's instructions. The amount of cells in each well is assessed using CellTiter-Glo® (Promega). The ratio of ELISA value/CellTiter-Glo value is used to calculate the percent of inhibition of IL-6 secretion.

SMILES	IC50 (BRD4 (BD1)) [nM]	IC50 [1] [nM]	IC50 [2] [nM]
Cc1nnc2n1-c1ccccc1N(c1ccc(Cl)cc1)C(C)(C)C2 [Compound 22, 6-(4-chlorophenyl)-1,5,5-trimethyl-5,6-dihydro-4H-benzo[b][1,2,4]triazolo[4,3-d][1,4]diazepine]	> 10000	100 to 1000	1000 to 10000
Cc1ncnn1-c1ccc2c(c1)N(c1ccc(Cl)cc1)C[C@@H](C)c1nnc(C)n1-2 [Compound 65, (R)-6-(4-chlorophenyl)-1,4-dimethyl-8-(5-methyl-1H-1,2,4-triazol-1-yl)-5,6-dihydro-4H-benzo[b][1,2,4]triazolo[4,3-d][1,4]diazepine]	100 to 1000	1000 to 10000	100 to 1000
Cc1nnc2n1-c1ccc(-c3cnn(C)c3)cc1N(c1ccc(C#N)cn1)C[C@@H]2C [Compound 58, (S)-4H-[1,2,4]triazolo[4,3-a][1,5]benzodiazepine, 5,6-dihydro-1,4-dimethyl-8-(1-methyl-1H-pyrazol-4-yl)-6-(5-cyanopyridin-2-yl)]	1000 to 10000	1000 to 10000	1000 to 10000
Cc1nnc2n1-c1ccccc1N(c1ccc(Cl)cc1)C(C)C2 (stereo not shown) [Compound 18, 6-(4-chlorophenyl)-1,5-dimethyl-5,6-dihydro-4H-benzo[b][1,2,4]triazolo[4,3-d][1,4]diazepine]	100 to 1000	1000 to 10000	> 1000
COc1ccc2c(n1)N(c1ccc(C#N)cc1)CC(C)c1nnc(C)n1-2 (stereo not shown) [Compound 84, 4-(8-methoxy-1,4-dimethyl-4H-pyrido[2,3-b][1,2,4]triazolo[4,3-d][1,4]diazepin-6(5H)-yl)benzonitrile]	> 500	1000 to 10000	> 1000
Cc1nnc2n1-c1ccc(-c3cnc(N)cn3)cc1N(c1ccc(Cl)cn1)C[C@H]2C [Compound 83, (R)-5-(6-(5-chloropyridin-2-yl)-1,4-dimethyl-5,6-dihydro-4H-benzo[b][1,2,4]triazolo[4,3-d][1,4]diazepin-8-yl)pyrazin-2-amine]	< 100	< 100	< 100
Cc1nnc2n1-c1ccc(-c3ccc(N)nc3)cc1NCC2 [Compound 6, 5-(1-methyl-5,6-dihydro-4H-benzo[b][1,2,4]triazolo[4,3-d][1,4]diazepin-8-yl)pyridin-2-amine]	1000 to 10000		> 10000
Cc1nnc2n1-c1ccc(-c3ccccc3)cc1N(c1ccc(Cl)cc1)CC2 [Compound 14, 6-(4-chlorophenyl)-1-methyl-8-phenyl-5,6-dihydro-4H-benzo[b][1,2,4]triazolo[4,3-d][1,4]diazepine]	100 to 1000		1000 to 10000
Cc1nnc2n1-c1ccc(-c3ccc(N)nc3)cc1N(C)CC2 [Compound 5, 5-(1,6-dimethyl-5,6-dihydro-4H-benzo[b][1,2,4]triazolo[4,3-d][1,4]diazepin-8-yl)pyridin-2-amine]	1000 to 10000		1000 to 10000
Cc1nnc2n1-c1ccc(-c3ccc(N)nc3)cc1N(c1cnn(C)c1)C[C@H]2C [Compound 76, (R)-5-(1,4-dimethyl-6-(1-methyl-1H-pyrazol-4-yl)-5,6-dihydro-4H-benzo[b][1,2,4]triazolo[4,3-d][1,4]diazepin-8-yl)pyridin-2-amine]		100 to 1000	100 to 1000
Cc1nnc2n1-c1ccccc1NC(C)C2 (stereo not shown) [Compound 12, 1,5-dimethyl-5,6-dihydro-4H-benzo[b][1,2,4]triazolo[4,3-d][1,4]diazepine]	> 10000		> 10000
Cc1nnc2n1-c1ccc(Br)cc1N(c1ccc(Cl)cc1)CC2 [Compound 13, 8-bromo-6-(4-chlorophenyl)-1-methyl-5,6-dihydro-4H-benzo[b][1,2,4]triazolo[4,3-d][1,4]diazepine]	100 to 1000		100 to 1000
Cc1nnc2n1-c1ccccc1N(c1ccc(Cl)cc1)CC2CCO (stereo not shown) [Compound 9, 2-(6-(4-chlorophenyl)-1-methyl-5,6-dihydro-4H-benzo[b][1,2,4]triazolo[4,3-d][1,4]diazepin-4-yl)ethanol]	1000 to 10000		1000 to 10000
Cc1nnc2n1-c1ccc(C(=O)N3CCOCC3)cc1N(c1ccc(Cl)cc1)C[C@H]2C [Compound 56, 4-R-4H-[1,2,4]triazolo[4,3-a][1,5]benzodiazepine,5,6-dihydro-1,4-dimethyl-8-(morpholine-4-carbonyl)-6-(4-chloro-phenyl)]	100 to 1000		> 1000

Now from value to molecule:

IC50 (BRD4 (BD1)) [nM]	IC50 [1] [nM]	IC50 [2] [nM]	SMILES
100 to 1000	1000 to 10000	> 1000	Cc1nnc2n1-c1ccc(-c3cnn(C)c3)cc1N(c1ccc(Cl)cc1)C[C@@H]2C [Compound 42, (S)-4H-[1,2,4]triazolo[4,3-a][1,5]benzodiazepine, 5,6-dihydro-1,4-dimethyl-8-(1-methyl-1H-pyrazol-4-yl)-6-(4-chloro-phenyl)]
< 100	< 100	< 100	Cc1nnc(-c2ccc3c(c2)N(c2ccc(Cl)cc2)C[C@@H](C)c2nnc(C)n2-3)o1 [Compound 49, 4-R-4H-[1,2,4]triazolo[4,3-a][1,5]benzodiazepine,5,6-dihydro-1,4-dimethyl-8-(5-methyl-1,3,4-oxadiazol-2-yl)-6-(4-chloro-phenyl)]
100 to 1000	< 100	< 100	Cc1noc(-c2ccc3c(c2)N(c2ccc(Cl)cc2)C[C@@H](C)c2nnc(C)n2-3)n1 [Compound 51, 4-R-4H-[1,2,4]triazolo[4,3-a][1,5]benzodiazepine,5,6-dihydro-1,4-dimethyl-8-(3-methyl-1,2,4-oxadiazol-5-yl)-6-(4-chloro-phenyl)]
< 100	< 100	< 100	Cc1nnc2n1-c1ccc(-c3ccc(N)nc3)cc1N(c1ccc(Cl)cc1)CC2C (stereo not shown) [Compound 23, 4H-[1,2,4]triazolo[4,3-a][1,5]benzodiazepine,5,6-dihydro-1,4-dimethyl-8-(6-aminopyridin-3-yl)-6-(4-chloro-phenyl)]
100 to 1000	1000 to 10000		Cc1nnc2n1-c1ccc(-c3ccc(=O)[nH]c3)cc1N(c1ccc(S(C)(=O)=O)cc1)C[C@H]2C [Compound 78, (R)-5-(1,4-dimethyl-6-(4-(methylsulfonyl)phenyl)-5,6-dihydro-4H-benzo[b][1,2,4]triazolo[4,3-d][1,4]diazepin-8-yl)pyridin-2(1H)-one]
1000 to 10000	1000 to 10000	> 1000	Cc1nnc2n1-c1ccc(Br)cc1N(c1ccc(S(C)(=O)=O)cc1)C[C@H]2C [Compound 77, (R)-8-bromo-1,4-dimethyl-6-(4-(methylsulfonyl)phenyl)-5,6-dihydro-4H-benzo[b][1,2,4]triazolo[4,3-d][1,4]diazepine]
< 100	100 to 1000	100 to 1000	Cc1nnc2n1-c1ccc(-c3cnn(CC(N)=O)c3)cc1N(c1ccc(Cl)cc1)C[C@H]2C [Compound 46, 4H-[1,2,4]triazolo[4,3-a][1,5]benzodiazepine,5,6-dihydro-(4R)-1,4-dimethyl-8-(1-(2-amino-2-oxoethyl)-1H-pyrazol-4-yl)-6-(4-chloro-phenyl)]
1000 to 10000	1000 to 10000	1000 to 10000	Cc1ccc(-c2ccc3c(c2)N(c2ccc(Cl)cc2)C[C@H](C)c2nnc(C)n2-3)cn1 [Compound 28, (S)-4H-[1,2,4]triazolo[4,3-a][1,5]benzodiazepine, 5,6-dihydro-1,4-dimethyl-8-(6-methylpyridin-3-yl)-6-(4-chloro-phenyl)]
< 100	< 100	< 100	Cc1nnc2n1-c1ccc(-c3cnn(C)c3)cc1N(c1ccc(Cl)cc1)C[C@H]2C [Compound 43, (R)-(4H-[1,2,4]triazolo[4,3-a][1,5]benzodiazepine,5,6-dihydro-1,4-dimethyl-8-(1-methyl-1H-pyrazol-4-yl)-6-(4-chloro-phenyl))]
< 100	100 to 1000		Cc1nnc2n1-c1ccc(-c3cnc(N)cn3)cc1N(c1ccc(S(C)(=O)=O)cc1)C[C@H]2C [Compound 79, (R)-5-(1,4-dimethyl-6-(4-(methylsulfonyl)phenyl)-5,6-dihydro-4H-benzo[b][1,2,4]triazolo[4,3-d][1,4]diazepin-8-yl)pyrazin-2-amine]
1000 to 10000		> 1000	Cc1nnc2n1-c1ccc(-c3cnc(N)nc3)cc1N(c1ccc(Cl)cc1)C[C@@H]2C [Compound 40, (S)-4H-[1,2,4]triazolo[4,3-a][1,5]benzodiaze-pine,5,6-dihydro-1,4-dimethyl-8-(2-aminopyrimidin-5-yl)-6-(4-chloro-phenyl)]
